IC50 data for eleven compounds are collected here from patent US20240368092A1, “2,4-Dihydro-3H-1,2,4-Triazol-3-One P2X7 Antagonists” (Breye Therapeutics ApS, priority 2021, published 2024).

Bounds are passed on as bounds.

Type in all cases: cell-based
One assay has as its target T1, human P2X7 channel (Homo sapiens, UniProt Q99572).
T1 construct: expressed in transfected cells; host or cells: HEK-293
T1 sequence (Q99572 1-595): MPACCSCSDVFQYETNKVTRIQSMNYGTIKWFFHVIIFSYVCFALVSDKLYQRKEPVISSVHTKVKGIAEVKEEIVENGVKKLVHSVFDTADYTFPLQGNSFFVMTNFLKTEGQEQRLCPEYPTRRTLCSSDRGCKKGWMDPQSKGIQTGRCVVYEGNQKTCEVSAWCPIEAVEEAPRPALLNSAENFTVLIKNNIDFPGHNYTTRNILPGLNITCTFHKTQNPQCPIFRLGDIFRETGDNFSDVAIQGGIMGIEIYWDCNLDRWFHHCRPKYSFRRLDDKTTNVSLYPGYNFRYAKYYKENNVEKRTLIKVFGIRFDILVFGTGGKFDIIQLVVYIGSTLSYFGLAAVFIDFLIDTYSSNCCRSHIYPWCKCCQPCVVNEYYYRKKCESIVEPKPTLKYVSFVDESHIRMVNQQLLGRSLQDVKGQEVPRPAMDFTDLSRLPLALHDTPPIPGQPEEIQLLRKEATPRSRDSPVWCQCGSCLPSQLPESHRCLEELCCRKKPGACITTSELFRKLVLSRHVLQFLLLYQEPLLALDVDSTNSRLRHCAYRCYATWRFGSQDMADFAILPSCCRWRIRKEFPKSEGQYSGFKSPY
The experiment in a line: human P2X7 channel assay by automated patch-clamp (QPatch 16X). As to conditions: HEK-293 cells expressing P2X7; current evoked by 100 microM BzATP; whole-cell, held at -80 mV; read-out: human Q-Patch (activity range). The method, then: In order to directly monitor the block of P2X7 channel, an electrophysiological assay was developed and implemented on the QPatchl6X automated electrophysiology instrument.
HEK-293 cells expressing the P2X7 channels were cultured in modified EMEM.
72 hours before experiment, 5 million cells were seeded onto T225 flasks. Just before the experiment cells were washed twice, detached from the flask with trypsin-EDTA, re-suspended in the suspension solution and placed on the QPatch 16x.
The compounds (20 mM in a 100% DMSO) stored at −20° C. were prepared the day of the experiment (a first dilution 1:20 in 100% DMSO to prepare a 1 mM stock solution, then a 1 microM solution in external solution+a serial dilution 1:10).
The standard whole-cell voltage clamp experiments were performed at room temperature. From these experiments the multihole technology was used and the data were sampled at 2 KHz.
The intracellular solution contained (mM) 135 CsF, 10 NaCl, 1 EGTA, 10 HEPES, (pH 7.2 with CsOH) whereas the extracellular contained (mM) 145 NaCl, 4 KCl, 0.5 MgCl2, 1 CaCl2, 10 HEPES, 10 Glc (pH 7.4 with NaOH).
After establishment of the seal and the passage in the whole cell configuration, the cells were held at −80 mV. The P2XR7 current was evoked by applying 100 microM of BzATP alone (4 times) and then in the presence increasing concentrations of the compound under investigation (1, 10, 100 and 1000 nM).
The pre-incubation periods 5 to 8 contain increasing concentrations of the compound of interest (1, 10, 100 and 1000 nM), as illustrated in FIGURE (application protocol).
The maximal inward current evoked by BzATP in absence or presence of increasing concentrations of the compounds under investigation was measured and normalized. The potential […] effect was measured as % of control and as IC50 determined fitting the dose-response curves data with the following equation:
Here are reported the potency ranges as A, B, C and D, where A is <10 nM; B is 10 nM-100 nM, C is 0.1-1 μM, D is 1-10 μM.
A general note: The patch-clamp technique gives a direct electrical read-out from membranes.

Another assay concerns the target T2, mouseP2X7 (Mus musculus, UniProt Q9Z1M0).
T2 construct: expressed in transfected cells; host or cells: HEK-293
T2 sequence (Q9Z1M0 1-595): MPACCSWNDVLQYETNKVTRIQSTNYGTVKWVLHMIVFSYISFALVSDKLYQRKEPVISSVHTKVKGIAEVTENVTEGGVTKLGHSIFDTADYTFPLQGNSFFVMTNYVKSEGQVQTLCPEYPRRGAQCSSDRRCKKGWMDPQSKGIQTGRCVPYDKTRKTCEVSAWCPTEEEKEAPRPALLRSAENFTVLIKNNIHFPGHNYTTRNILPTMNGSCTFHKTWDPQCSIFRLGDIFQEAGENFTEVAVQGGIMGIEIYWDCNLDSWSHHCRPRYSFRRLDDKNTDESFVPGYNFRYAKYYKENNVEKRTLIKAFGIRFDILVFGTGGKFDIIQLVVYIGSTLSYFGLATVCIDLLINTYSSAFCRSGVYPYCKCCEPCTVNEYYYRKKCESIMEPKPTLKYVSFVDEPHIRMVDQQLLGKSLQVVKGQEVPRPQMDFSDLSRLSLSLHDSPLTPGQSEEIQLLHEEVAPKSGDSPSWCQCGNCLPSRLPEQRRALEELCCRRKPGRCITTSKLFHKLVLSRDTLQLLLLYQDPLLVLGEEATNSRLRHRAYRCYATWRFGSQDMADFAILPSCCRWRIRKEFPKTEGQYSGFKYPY
The experiment in a line: P2X7 channel calcium-influx assay (Fluo-8, FLIPR TETRA), mouse P2X7. As to conditions: HEK-293 cells stably transfected with P2X7; Bz-ATP at EC80; low divalent cation buffer; read-out: mouseP2X7 (activity range). How it is done:
(§1) Extracellular binding of Bz-ATP to P2X7 receptor opens the channel and allows Ca^2+ influx into the cells. This Ca^2+ entry was measured in HEK-293 cells stably transfected with P2X7 receptor using Screen Quest™ Fluo-8 No Wash Calcium Assay Kit (AAt Bioquest®, cat. 36316). Once inside the cell, the lipophilic blocking groups of Fluo-8 are cleaved by non-specific cell esterases, resulting in a negatively-charged fluorescent dye that stays inside cells. Its fluorescence increases upon binding to calcium. When HEK-293/P2X7 cells are stimulated with Bz-ATP, Ca^2+ enters the cells and the fluorescence of Fluo-8 NW increases. The dye has an absorption spectrum compatible with excitation at 488 nm by argon laser sources and its emission wavelength is in the range of 515-575 nm.
(§2) HEK-293 cells stably transfected with P2X7 receptor were seeded overnight in growth medium at 10,000 to 20,000 cells/well in 384-well plate. 24 hours later, the medium was removed, and the cells were pre-loaded at RT for 1 hour with 20 μL/w of Fluo-8 NW. Then 10 μL/w of test compounds and reference antagonist A438079 at 3×-concentration were injected with the FLIPRTETRA and the kinetic response over a period of five minutes was monitored. A second injection of 15 μL/w of 3× reference activator (Bz-ATP at EC80) was performed with the FLIPR TETRA and the signal of the emitted fluorescence was recorded for additional three minutes. All the experiment was carried out in a Low Divalent Cation Assay Buffer (0.3 mM Ca^2+ and 0 mM Mg^2+). The effect of the test compounds was measured as percent inhibition vs the reference antagonist and IC50 values were calculated accordingly. Here are reported the potency ranges as A, B, C and D, where A is <200 nM; B is 200 nM-1 μM, C is 1-10 μM, D is 10-30 μM.

The next assay concerns the target T3, humanP2X7 (Homo sapiens, UniProt Q99572).
T3 construct: expressed in transfected cells; host or cells: HEK-293
T3 sequence (Q99572 1-595): T1 sequence (Q99572 1-595)
The experiment in a line: P2X7 channel calcium-influx assay (Fluo-8, FLIPR TETRA), human P2X7. The settings on record: HEK-293 cells stably transfected with P2X7; Bz-ATP at EC80; low divalent cation buffer; read-out: humanP2X7 (activity range). How it is done:
as §1, §2

For a further assay, the target named is T4, ratP2X7 (Rattus norvegicus, UniProt Q64663).
T4 construct: expressed in transfected cells; host or cells: HEK-293
T4 sequence (Q64663 1-595): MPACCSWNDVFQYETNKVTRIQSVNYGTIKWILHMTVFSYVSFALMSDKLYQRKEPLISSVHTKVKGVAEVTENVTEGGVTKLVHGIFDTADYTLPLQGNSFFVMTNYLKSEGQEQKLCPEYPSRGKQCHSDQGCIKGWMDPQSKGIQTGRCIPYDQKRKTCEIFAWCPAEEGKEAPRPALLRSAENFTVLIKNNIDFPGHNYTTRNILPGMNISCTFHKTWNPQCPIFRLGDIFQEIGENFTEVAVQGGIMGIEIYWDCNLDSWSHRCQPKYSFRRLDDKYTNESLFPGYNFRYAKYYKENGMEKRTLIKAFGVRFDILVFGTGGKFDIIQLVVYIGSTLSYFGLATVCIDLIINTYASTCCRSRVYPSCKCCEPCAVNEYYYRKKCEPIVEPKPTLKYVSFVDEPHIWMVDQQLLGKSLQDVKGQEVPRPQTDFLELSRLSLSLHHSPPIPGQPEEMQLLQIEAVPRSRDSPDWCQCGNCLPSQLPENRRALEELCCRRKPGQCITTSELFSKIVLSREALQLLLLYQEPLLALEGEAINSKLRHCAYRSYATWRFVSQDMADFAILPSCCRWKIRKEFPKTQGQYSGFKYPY
The experiment in a line: P2X7 channel calcium-influx assay (Fluo-8, FLIPR TETRA), rat P2X7. The settings on record: HEK-293 cells stably transfected with P2X7; Bz-ATP at EC80; low divalent cation buffer; read-out: ratP2X7 (activity range). The method, then: as §1, §2

With `Cn1nc(Cc2ccccc2C(F)(F)F)n(CC2CCC(F)(F)C2)c1=O` (centres unmarked) [Example 19, 4-((3,3-difluorocyclopentyl)methyl)-2-methyl-5-(2-(trifluoromethyl)benzyl)-2,4-dihydro-3H-1,2,4-triazol-3-one], the IC50 at human P2X7 channel is 100 to 1000 nM; at mouseP2X7, 10000 to 30000 nM; on humanP2X7 it was 1000 to 10000 nM; at ratP2X7, 200 to 1000 nM.

For `Cn1nc(Cc2c(F)cccc2Cl)n(CC2CCCO2)c1=O` (centres unmarked) [Example 20, 5-(2-chloro-6-fluorobenzyl)-2-methyl-4-((tetrahydrofuran-2-yl)methyl)-2,4-dihydro-3H-1,2,4-triazol-3-one], the IC50 on human P2X7 channel lay within 1000 to 10000 nM; at mouseP2X7, 10000 to 30000 nM; at humanP2X7, 10000 to 30000 nM; on ratP2X7, 10000 to 30000 nM.

Regarding `CN1CCCCC1Cn1c(Cc2c(F)cccc2Cl)nn(C)c1=O` (centres unmarked) [Example 21, 5-(2-chloro-6-fluorobenzyl)-2-methyl-4-((1-methylpiperidin-2-yl)methyl)-2,4-dihydro-3H-1,2,4-triazol-3-one], the IC50 at human P2X7 channel is 1000 to 10000 nM; on mouseP2X7, 10000 to 30000 nM; on humanP2X7, 1000 to 10000 nM; on ratP2X7, 1000 to 10000 nM.

Take `Cn1nc(Cc2c(F)cccc2Cl)n(CCN2CCOCC2)c1=O` [Example 22, 5-(2-chloro-6-fluorobenzyl)-2-methyl-4-(2-morpholinoethyl)-2,4-dihydro-3H-1,2,4-triazol-3-one]: the IC50 at human P2X7 channel lay in the range of 1000 to 10000 nM; on mouseP2X7, 10000 to 30000 nM; at humanP2X7, 10000 to 30000 nM; at ratP2X7, 10000 to 30000 nM.

Take `Cn1nc(Cc2ccccc2C(F)(F)F)n(CC2CCCCC2(C)C)c1=O` (centres unmarked) [Example 23, 4-((2,2-dimethylcyclohexyl)methyl)-2-methyl-5-(2-(trifluoromethyl)benzyl)-2,4-dihydro-3H-1,2,4-triazol-3-one]: the IC50 was 1000 to 10000 nM on human P2X7 channel, 200 to 1000 nM on mouseP2X7, 200 to 1000 nM on humanP2X7 and less than 200 nM on ratP2X7.

With `Cn1nc(CC2CCCCC2)n(Cc2c(F)cccc2Cl)c1=O` [Example 24, 4-(2-chloro-6-fluorobenzyl)-5-(cyclohexylmethyl)-2-methyl-2,4-dihydro-3H-1,2,4-triazol-3-one], the IC50 is 100 to 1000 nM at human P2X7 channel, 1000 to 10000 nM at mouseP2X7, 200 to 1000 nM on humanP2X7 and less than 200 nM at ratP2X7.

With `Cn1nc(CC2CCCCC2)n(Cc2ccccc2C(F)(F)F)c1=O` [Example 25, 5-(cyclohexylmethyl)-2-methyl-4-(2-(trifluoromethyl)benzyl)-2,4-dihydro-3H-1,2,4-triazol-3-one], the IC50 is 100 to 1000 nM on human P2X7 channel, 10000 to 30000 nM at mouseP2X7, 1000 to 10000 nM at humanP2X7 and 1000 to 10000 nM on ratP2X7.

`Cn1nc(Cc2ccccc2F)n(CC2CCC(F)(F)CC2)c1=O` [Example 26, 4-((4,4-difluorocyclohexyl)methyl)-5-(2-fluorobenzyl)-2-methyl-2,4-dihydro-3H-1,2,4-triazol-3-one]: the IC50 was 100 to 1000 nM on human P2X7 channel, 1000 to 10000 nM on mouseP2X7, 200 to 1000 nM at humanP2X7 and less than 200 nM on ratP2X7.

Regarding `Cn1nc(Cc2ccccc2F)n(CC2CCCCC2)c1=O` [Example 27, 4-(cyclohexylmethyl)-5-(2-fluorobenzyl)-2-methyl-2,4-dihydro-3H-1,2,4-triazol-3-one], the IC50 at human P2X7 channel was 1000 to 10000 nM; on mouseP2X7, 1000 to 10000 nM; at humanP2X7, 1000 to 10000 nM; on ratP2X7, less than 200 nM.

On to `Cn1nc(Cc2ccccc2C(F)(F)F)n(CC2CCCCCC2)c1=O` [Example 28, 4-(cycloheptylmethyl)-2-methyl-5-(2-(trifluoromethyl)benzyl)-2,4-dihydro-3H-1,2,4-triazol-3-one], for which the IC50 at human P2X7 channel was 100 to 1000 nM; on mouseP2X7, 1000 to 10000 nM; at humanP2X7, 200 to 1000 nM; at ratP2X7 it was less than 200 nM.

On to `Cn1nc(Cc2ccc(F)cc2)n(Cc2cc(-c3ncc(F)cn3)ccc2Cl)c1=O` [Example 29, 4-(2-chloro-5-(5-fluoropyrimidin-2-yl)benzyl)-5-(4-fluorobenzyl)-2-methyl-2,4-dihydro-3H-1,2,4-triazol-3-one], for which the IC50 on human P2X7 channel lay within 1000 to 10000 nM; at mouseP2X7 it was 10000 to 30000 nM; on humanP2X7 it was 10000 to 30000 nM; on ratP2X7 it was 10000 to 30000 nM.
